Results as given in patent US4880824A, “Phenyl and benzoyl substituted imidazo-fused heterocyclic calcium channel blockers” (Ortho Pharmaceutical Corporation, priority 1987, dated 1989).
Where a name gives a salt, the structure may show the parent alone.

How the values were obtained:
[1] = molecular target: T1, calcium channel (specifically bound 3H-nitrendipine, heart membranes) (Oryctolagus cuniculus, UniProt P15381); assay: Nitrendipine Binding Assay (NBA); parameters: species or system New Zealand white rabbits; details: for IC50: 3H-nitrendipine 0.05-0.50 nM, 90 min at 4° C., pH 7.4
T1 construct: The heart is immediately removed, cleaned and chopped into small pieces; from tissue; host or cells: heart membranes of female New Zealand white rabbits (42,000×g pellet)
Experimental: The NBA is performed on female, New Zealand white rabbits (1-2 kg) which are sacrificed by cervical dislocation. The heart is immediately removed, cleaned and chopped into small pieces. The tissue is homogenized in 5X volume of 0.05M Hepes buffer, pH 7.4. The homogenate is centrifuged at 4000×g for 10 min; the supernatant is recentrifuged at 42,000×g for 90 min. The resulting membrane pellet is resuspended (0.7 ml/g weight in 0.05M Hepes, pH 7.4 and stored at -70° C. until used. Each tube of the binding assay contains ^3 H-nitrendipine (0.05-0.50nM), buffer, membranes (0.10mL), and test compound in a total volume of 1.0 mL. After 90 min at 4° C., the bound nitrendipine is separated from the unbound by filtration on Whatman GF/C fibers. After rinsing, the filters are dried and counted in a liquid scintillation counter.
Non-specific binding of ^3 H-nitrendipine (that amount bound in the presence of excess unlabelled nitrendipine) is subtracted from the total bound to obtain specifically bound radiolabeled nitrendipine. The amount of specifically bound nitrendipine in the presence of a test compound is compared to that amount bound in the absence of a compound. A percent displacement (or inhibition) can then be obtained.

[2] = tested on: calcium dependent smooth muscle contraction (trachea); assay: Inhibition of Calcium Dependent Smooth Muscle Contraction (ICDSMC); parameters: species or system dogs; details: Canis lupus familiaris, 50 mM KCl
Experimental: Tracheal rings, one cartilage segment wide (5-10 mm), are cut starting from the bronchial end. After cutting the cartilage, the trachealis muscle tissue is suspended in oxygenated Krebs-Henseleit buffer at 37° C. in a 25 mL tissue bath. After a 60 min equilibration period, the tissues are challenged with 10 μM carbachol. After 5 min the tissues are rinsed and allowed to rest 50 min. The tissues are then challenged with 50 mM KCl and after 30 min, the contractions are quantitated. The tissues are then rinsed and reequilibrated for 50 min. Test compounds are then added for 10 min, and the tissue is rechallenged with 50 mM KCl.
The percent inhibition of smooth muscle contraction is calculated from response data before and after drug treatment according to the following equation. [formula]

T1 sequence (P15381 whole entry, other chains not shown): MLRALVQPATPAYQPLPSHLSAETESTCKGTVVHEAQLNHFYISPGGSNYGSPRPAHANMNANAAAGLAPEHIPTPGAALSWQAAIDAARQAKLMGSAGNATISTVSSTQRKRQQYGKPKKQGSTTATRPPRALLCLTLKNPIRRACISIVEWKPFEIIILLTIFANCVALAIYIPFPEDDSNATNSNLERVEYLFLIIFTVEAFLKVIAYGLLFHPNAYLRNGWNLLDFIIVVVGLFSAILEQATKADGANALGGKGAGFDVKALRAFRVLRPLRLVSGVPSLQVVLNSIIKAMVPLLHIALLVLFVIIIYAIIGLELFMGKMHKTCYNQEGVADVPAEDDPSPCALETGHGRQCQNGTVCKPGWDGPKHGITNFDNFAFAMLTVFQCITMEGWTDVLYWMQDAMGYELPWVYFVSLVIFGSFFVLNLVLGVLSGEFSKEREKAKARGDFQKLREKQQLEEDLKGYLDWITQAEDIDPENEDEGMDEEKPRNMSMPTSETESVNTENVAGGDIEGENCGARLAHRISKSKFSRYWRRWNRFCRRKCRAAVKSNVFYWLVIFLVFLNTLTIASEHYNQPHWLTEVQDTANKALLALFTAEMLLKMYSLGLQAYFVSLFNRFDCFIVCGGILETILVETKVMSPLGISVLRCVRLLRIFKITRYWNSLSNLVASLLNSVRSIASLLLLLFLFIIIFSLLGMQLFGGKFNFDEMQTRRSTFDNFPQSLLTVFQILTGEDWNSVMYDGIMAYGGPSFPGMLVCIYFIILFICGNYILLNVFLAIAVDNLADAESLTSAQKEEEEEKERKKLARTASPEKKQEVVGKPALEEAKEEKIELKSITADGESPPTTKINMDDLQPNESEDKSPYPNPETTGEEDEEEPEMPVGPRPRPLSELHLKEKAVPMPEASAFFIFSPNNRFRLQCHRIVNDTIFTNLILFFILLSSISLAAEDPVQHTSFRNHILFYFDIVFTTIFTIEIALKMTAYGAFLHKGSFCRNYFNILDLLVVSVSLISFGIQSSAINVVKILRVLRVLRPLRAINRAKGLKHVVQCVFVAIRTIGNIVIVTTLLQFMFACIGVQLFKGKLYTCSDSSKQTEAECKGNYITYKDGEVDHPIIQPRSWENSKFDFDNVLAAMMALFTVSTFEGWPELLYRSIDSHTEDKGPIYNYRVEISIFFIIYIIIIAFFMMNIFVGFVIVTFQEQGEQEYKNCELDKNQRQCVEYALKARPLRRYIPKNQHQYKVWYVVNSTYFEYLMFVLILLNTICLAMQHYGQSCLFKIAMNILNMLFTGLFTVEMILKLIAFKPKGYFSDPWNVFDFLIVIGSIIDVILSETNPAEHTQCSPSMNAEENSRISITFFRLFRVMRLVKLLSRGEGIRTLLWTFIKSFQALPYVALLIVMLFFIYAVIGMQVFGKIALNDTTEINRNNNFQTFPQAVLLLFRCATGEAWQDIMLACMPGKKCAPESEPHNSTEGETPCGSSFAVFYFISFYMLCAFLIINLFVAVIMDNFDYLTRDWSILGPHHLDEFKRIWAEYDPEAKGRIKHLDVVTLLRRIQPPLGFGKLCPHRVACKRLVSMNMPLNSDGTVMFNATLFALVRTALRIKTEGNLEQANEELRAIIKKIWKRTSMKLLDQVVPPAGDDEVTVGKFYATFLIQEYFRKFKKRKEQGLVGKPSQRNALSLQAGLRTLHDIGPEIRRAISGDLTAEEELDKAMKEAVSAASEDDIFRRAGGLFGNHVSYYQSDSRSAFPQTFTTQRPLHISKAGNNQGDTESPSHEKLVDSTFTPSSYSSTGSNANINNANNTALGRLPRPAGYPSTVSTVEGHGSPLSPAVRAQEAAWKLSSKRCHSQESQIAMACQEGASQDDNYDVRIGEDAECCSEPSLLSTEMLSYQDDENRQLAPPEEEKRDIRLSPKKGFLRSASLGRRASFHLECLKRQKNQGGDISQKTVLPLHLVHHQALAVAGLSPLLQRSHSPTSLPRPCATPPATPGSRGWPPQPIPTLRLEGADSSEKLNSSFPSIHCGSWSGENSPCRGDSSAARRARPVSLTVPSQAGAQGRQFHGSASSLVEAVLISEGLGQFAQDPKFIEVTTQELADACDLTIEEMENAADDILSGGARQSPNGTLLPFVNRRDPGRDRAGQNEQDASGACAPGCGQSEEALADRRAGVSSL
T1 sequence (P13806 27-960 partner limits assumed, other chains not shown): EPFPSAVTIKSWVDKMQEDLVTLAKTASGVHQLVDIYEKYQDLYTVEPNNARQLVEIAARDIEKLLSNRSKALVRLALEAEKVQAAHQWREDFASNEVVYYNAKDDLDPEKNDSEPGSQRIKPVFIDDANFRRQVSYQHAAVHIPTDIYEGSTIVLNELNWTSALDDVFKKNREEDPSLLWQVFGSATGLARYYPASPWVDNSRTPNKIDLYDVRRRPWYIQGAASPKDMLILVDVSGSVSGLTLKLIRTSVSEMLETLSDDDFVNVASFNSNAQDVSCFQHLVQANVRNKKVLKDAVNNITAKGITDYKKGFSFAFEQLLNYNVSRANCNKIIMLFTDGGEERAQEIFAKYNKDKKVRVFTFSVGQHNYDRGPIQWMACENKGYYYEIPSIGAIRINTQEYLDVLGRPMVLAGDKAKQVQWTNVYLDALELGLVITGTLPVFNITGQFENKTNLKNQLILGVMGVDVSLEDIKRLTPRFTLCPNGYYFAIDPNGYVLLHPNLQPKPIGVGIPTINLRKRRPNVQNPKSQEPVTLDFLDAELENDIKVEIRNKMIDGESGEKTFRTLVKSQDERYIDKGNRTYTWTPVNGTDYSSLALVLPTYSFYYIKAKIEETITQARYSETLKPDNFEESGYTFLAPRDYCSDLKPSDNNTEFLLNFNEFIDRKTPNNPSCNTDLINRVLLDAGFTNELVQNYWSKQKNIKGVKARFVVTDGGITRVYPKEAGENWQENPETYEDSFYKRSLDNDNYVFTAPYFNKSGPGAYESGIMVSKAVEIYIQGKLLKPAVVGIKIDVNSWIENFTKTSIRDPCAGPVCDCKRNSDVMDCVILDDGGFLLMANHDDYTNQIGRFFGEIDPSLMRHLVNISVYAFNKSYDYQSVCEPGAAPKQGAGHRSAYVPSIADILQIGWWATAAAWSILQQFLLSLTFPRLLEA
T1 sequence (P13806 961-1106 partner limits assumed, other chains not shown): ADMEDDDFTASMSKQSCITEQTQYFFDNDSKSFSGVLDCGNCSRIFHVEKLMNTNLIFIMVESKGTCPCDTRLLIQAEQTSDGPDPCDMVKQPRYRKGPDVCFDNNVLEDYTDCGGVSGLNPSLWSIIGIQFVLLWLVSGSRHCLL

**Q.** With `CCCCN(CCCC)CCCOc1ccc(-c2cn3nc(C)sc3n2)cc1` [Example 1d, 6-(4-Dibutylaminopropoxyphenyl)-2-methylimidazo[2,1-b]-1,3,4-thiadiazoledihydrochloride] as the molecule, how does the IC50 [1] read?
**A.** 1100 nM

**Q.** And the inhibition at 1 µM [2]?
**A.** 50%

**Q.** And the inhibition at 5 µM ([2]; @ 5 μM)?
**A.** 27%

**Q.** And the inhibition at 10 µM [2]?
**A.** 82%

**Q.** With `CCCCN(CCCC)CCCOc1ccc(-c2cn3ccsc3n2)cc1` [Example 2, 6-(4-Dibutylaminopropoxyphenyl)imidazo[2,1-b]thiazole dihydrochloride] as the molecule, how does the IC50 [1] read?
**A.** 1500 nM

**Q.** What about the inhibition at 1 µM [2] of the same molecule?
**A.** 8%

**Q.** What about the inhibition at 2 µM [2] of the same molecule?
**A.** 24%

**Q.** What about the inhibition at 10 µM [2] of the same molecule?
**A.** 55%

**Q.** And the inhibition at 20 µM [2]?
**A.** 81%

**Q.** Which IC50 [1] does the source give for `CCCCN(CCCC)CCCOc1ccc(-c2nc3sccn3c2C)cc1` [Example 3, 6-(4-Dibutylaminopropoxyphenyl)-5-methylimidazo[2,1-b]thiazole hydrochloride] here?
**A.** 1300 nM

**Q.** And the inhibition at 1 µM [2]?
**A.** 11%

**Q.** What about the inhibition at 10 µM [2] of the same molecule?
**A.** 75%

**Q.** How did the IC50 [1] turn out when `CCCCN(CCCC)CCCOc1ccc(-c2cn3c(n2)sc2ccccc23)cc1` [Example 4, 6-(4-Dibutylaminopropoxyphenyl)imidazo[2,1-b]benzothiadihydrochloride] was run?
**A.** 3100 nM

**Q.** What about the inhibition at 20 µM [2] of the same molecule?
**A.** 38%

**Q.** How did the IC50 [1] turn out when `CCCCN(CCCC)CCCOc1ccc(-c2cn3nccnc3n2)cc1` [Example 5, 2-(4-Dibutylaminopropoxyphenyl)imidazo[1,2-b]-1,2,4-triazine hydrochloride] was run?
**A.** 600 nM

**Q.** And the inhibition at 10 µM [2]?
**A.** 45%

**Q.** What about the inhibition at 20 µM [2] of the same molecule?
**A.** 85%

**Q.** Which results are given for `CCCCN(CCCC)CCCOc1ccc(-c2cn3cccnc3n2)cc1` [Example 6, 2-(4-Dibutylaminopropoxyphenyl)imidazo[1,2-a]pyrimidine dihydrochloride]?
**A.** inhibition at 68 µM ([1]; @ 68 μM, read-out: NBA percent displacement (or inhibition)): 43%; inhibition at 2 µM [2]: 26%; inhibition at 10 µM [2]: 46%; inhibition at 20 µM [2]: 65%

**Q.** Which inhibition at 2 µM [2] does the source give for `CCCCN(CCCC)CCCOc1ccc(-c2cn3ccc(C)nc3n2)cc1` [Example 7, 2-(4-Dibutylaminopropoxyphenyl)-7-methylimidazo-[1,2-a]pyrimidine trihydrochloride] here?
**A.** 25%

**Q.** And the inhibition at 10 µM [2]?
**A.** 39%

**Q.** For `CCCCN(CCCC)CCCOc1ccc(C(=O)c2cnc3ncccn23)cc1` [Example 8c, 3-(4-Dibutylaminopropoxybenzoyl)imidazo[1,2-a]pyrimidine dihydrochloride], which IC50 [1] is on record?
**A.** 7000 nM

**Q.** And the inhibition at 1 µM [2]?
**A.** 70%

**Q.** What about the inhibition at 0.1 µM ([2]; @ .1 μM) of the same molecule?
**A.** 37%

**Q.** And the inhibition at 0.5 µM ([2]; @ .5 μM)?
**A.** 60%

**Q.** With `CCCCN(CCCC)CCCOc1ccc(C(=O)c2cnc3nc(C)ccn23)cc1` [Example 9b, 3-(4-Dibutylaminopropoxybenzoyl)-7-methylimidazo[1,2-a]-pyrimidine hydrochloride] as the molecule, how does the inhibition at 10 µM [2] read?
**A.** 19%
